Assay results from patent US20230021483A1, “[…] […] METHOD AND CLASSIFICATION OF PHARMACEUTICAL COMPONENTS BY USING TRANSCRIPTOMES” (National Institutes of Biomedical Innovation, Health and …, priority 2016, published 2023).

Key:
[1] = test system: inguinal lymph nodes (LN); test: Whole organ transcriptome (GeneChip microarray) of draining inguinal lymph nodes 6 h after adjuvant administration: sDEGs, gene modules, hierarchical clustering; format: in vivo, C57BL/6 mice; conditions: hierarchical clustering, lymph node; also: key: G1 (interferon signaling); G2 (metabolism of lipids and lipoproteins); G3 (response to stress); G4 (response to wounding); G5 (phosphate-containing compound metabolic process); G6 (phagosome)
[2] = test system: preferentially upregulated genes in LV, SP, LN; test: Z-score-based differential gene expression analysis (adjuvant group- or adjuvant-associated genes, 40 module mapping, TargetMine annotation); format: in vivo, C57BL/6 mice; conditions: ID, LV
Source text: Each sample's FC value was converted into a z-score on a gene basis by using the entire data set for each organ. The Z-score of the triplicates of interest were summed for each adjuvant. For example, the three sample z-score in the LV sample following cdiGMP administration was summed on a gene-by-gene basis, after which the summed scores of >3 genes were selected as relatively preferentially expressed genes in the LV after cdiGMP administration. The following threshold was applied for selections. […] G2^LV: ALM_IP(z>1) & bCD(z>1) & ENDCN(z>1) & FCA(z>1). […] G4^LV: MALP2s(z>3). […] G2^SP: ENDCN_x2+ENDCN_x3(z>2) & ALM_IP(z>3) & bCD(z>3). […] G4^SP: ADX_ID_x2+ADX_ID_x3(z>2) & ADX_IP(z>3) & MALP2s(z>3). […] G2^LN: bCD(z>3) & FCA(z>3). […] G5^LN: K3(z>1.5) & K3SPG_x1+K3SPG_x2(z>1) & D35_x1+D35_x3(z>1). G6^LN: AddaVax(z>3).

Compound: CCOCc1nc2c(N)nc3ccccc3c2n1CC(C)(C)O [R848, 4-amino-2-(ethoxymethyl)-a,a-dimethyl-1H-imidazo[4,5-c]quinoline-1-ethanol]
- adjuvant group (cluster) in LN [1]: G1
- Adar 1425405_a_at (Group G1, Modules 20) ([2]; sample x1): 1.63
- Adar 1434268_at (Group G1, Modules 20) ([2]; sample x1): 2.77
- Ddx58 1436562_at (Group G1, Modules 20) ([2]; sample x1): 2.64
- Ddx58 1456890_at (Group G1, Modules 20) ([2]; sample x1): 2.42
- Eif2ak2 1422005_at (Group G1, Modules 20) ([2]; sample x1): 2.43
- G3bp2 1421323_a_at (Group G1, Modules 20) ([2]; sample x1): 2.13
- Gm9706///Isg15 1431591_s_at (Group G1, Modules 20) ([2]; sample x1): 2.55
- H2-T10///H2-T22///H2-T9 1449875_s_at (Group G1, Modules 20) ([2]; sample x1): 2.05
- Ifih1 1426276_at (Group G1, Modules 20) ([2]; sample x1): 3.25
- Ifit1 1450783_at (Group G1, Modules 20) ([2]; sample x1): 1.54
- Ifit3 1449025_at (Group G1, Modules 20) ([2]; sample x1): 2.19
- Irf7 1417244_a_at (Group G1, Modules 20) ([2]; sample x1): 2.27
- Irgm1 1418825_at (Group G1, Modules 20) ([2]; sample x1): 2.87
- Mndal 1426906_at (Group G1, Modules 20) ([2]; sample x1): 1.65
- Pml 1448757_at (Group G1, Modules 20) ([2]; sample x1): 1.77
- Pml 1456103_at (Group G1, Modules 20) ([2]; sample x1): 3.66
- Rnf213 1455500_at (Group G1, Modules 20) ([2]; sample x1): 1.29
- Rsad2 1436058_at (Group G1, Modules 20) ([2]; sample x1): 1.97
- Shisa5 1423986_a_at (Group G1, Modules 20) ([2]; sample x1): 2.93
- Shisa5 1437503_a_at (Group G1, Modules 20) ([2]; sample x1): 3.09
- Stat1 1450033_a_at (Group G1, Modules 20) ([2]; sample x1): 1.4
- Stat1 1450034_at (Group G1, Modules 20) ([2]; sample x1): 2.37
- Tdrd7 1426716_at (Group G1, Modules 20) ([2]; sample x1): 1.79
- Tor1aip2 1418115_s_at (Group G1, Modules 20) ([2]; sample x1): 1.53
- Tor1aip2 1418116_at (Group G1, Modules 20) ([2]; sample x1): 1.45
- Tor1aip2 1435526_at (Group G1, Modules 20) ([2]; sample x1): 3.12
- Trim12a 1437432_a_at (Group G1, Modules 20) ([2]; sample x1): 2.13
- Uba7 1426970_a_at (Group G1, Modules 20) ([2]; sample x1): 2.64
- Adar 1425405_a_at (Group G1, Modules 20) ([2]; sample x2): 1.17
- Adar 1434268_at (Group G1, Modules 20) ([2]; sample x2): 1.8
- Ddx58 1436562_at (Group G1, Modules 20) ([2]; sample x2): 2.33
- Ddx58 1456890_at (Group G1, Modules 20) ([2]; sample x2): 1.34
- Eif2ak2 1422005_at (Group G1, Modules 20) ([2]; sample x2): 1.56
- G3bp2 1421323_a_at (Group G1, Modules 20) ([2]; sample x2): 1.21
- Gm9706///Isg15 1431591_s_at (Group G1, Modules 20) ([2]; sample x2): 2.1
- H2-T10///H2-T22///H2-T9 1449875_s_at (Group G1, Modules 20) ([2]; sample x2): 2.01
- Ifih1 1426276_at (Group G1, Modules 20) ([2]; sample x2): 2.46
- Ifit1 1450783_at (Group G1, Modules 20) ([2]; sample x2): 1.14
- Ifit3 1449025_at (Group G1, Modules 20) ([2]; sample x2): 1.76
- Irf7 1417244_a_at (Group G1, Modules 20) ([2]; sample x2): 2.39
- Irgm1 1418825_at (Group G1, Modules 20) ([2]; sample x2): 2.12
- Mndal 1426906_at (Group G1, Modules 20) ([2]; sample x2): 1.42
- Pml 1448757_at (Group G1, Modules 20) ([2]; sample x2): 1.53
- Pml 1456103_at (Group G1, Modules 20) ([2]; sample x2): 1.62
- Rnf213 1455500_at (Group G1, Modules 20) ([2]; sample x2): 1.03
- Rsad2 1436058_at (Group G1, Modules 20) ([2]; sample x2): 1.77
- Shisa5 1423986_a_at (Group G1, Modules 20) ([2]; sample x2): 2.32
- Shisa5 1437503_a_at (Group G1, Modules 20) ([2]; sample x2): 2.43
- Stat1 1450033_a_at (Group G1, Modules 20) ([2]; sample x2): 1.2
- Stat1 1450034_at (Group G1, Modules 20) ([2]; sample x2): 1.92
- Tdrd7 1426716_at (Group G1, Modules 20) ([2]; sample x2): 1.21
- Tor1aip2 1418115_s_at (Group G1, Modules 20) ([2]; sample x2): 1.08
- Tor1aip2 1418116_at (Group G1, Modules 20) ([2]; sample x2): 1.22
- Tor1aip2 1435526_at (Group G1, Modules 20) ([2]; sample x2): 2.18
- Trim12a 1437432_a_at (Group G1, Modules 20) ([2]; sample x2): 1.94
- Uba7 1426970_a_at (Group G1, Modules 20) ([2]; sample x2): 2.42
- Adar 1425405_a_at (Group G1, Modules 20) ([2]; sample x3): 0.96
- Adar 1434268_at (Group G1, Modules 20) ([2]; sample x3): 1
- Ddx58 1436562_at (Group G1, Modules 20) ([2]; sample x3): 1.6
- Ddx58 1456890_at (Group G1, Modules 20) ([2]; sample x3): 0.95
- Eif2ak2 1422005_at (Group G1, Modules 20) ([2]; sample x3): 1.09
- G3bp2 1421323_a_at (Group G1, Modules 20) ([2]; sample x3): 1.04
- Gm9706///Isg15 1431591_s_at (Group G1, Modules 20) ([2]; sample x3): 1.95
- H2-T10///H2-T22///H2-T9 1449875_s_at (Group G1, Modules 20) ([2]; sample x3): 1.77
- Ifih1 1426276_at (Group G1, Modules 20) ([2]; sample x3): 2.36
- Ifit1 1450783_at (Group G1, Modules 20) ([2]; sample x3): 0.63
- Ifit3 1449025_at (Group G1, Modules 20) ([2]; sample x3): 1.49
- Irf7 1417244_a_at (Group G1, Modules 20) ([2]; sample x3): 2.37
- Irgm1 1418825_at (Group G1, Modules 20) ([2]; sample x3): 2.02
- Mndal 1426906_at (Group G1, Modules 20) ([2]; sample x3): 1.21
- Pml 1448757_at (Group G1, Modules 20) ([2]; sample x3): 0.66
- Pml 1456103_at (Group G1, Modules 20) ([2]; sample x3): 1.29
- Rnf213 1455500_at (Group G1, Modules 20) ([2]; sample x3): 0.72
- Rsad2 1436058_at (Group G1, Modules 20) ([2]; sample x3): 0.67
- Shisa5 1423986_a_at (Group G1, Modules 20) ([2]; sample x3): 2.23
- Shisa5 1437503_a_at (Group G1, Modules 20) ([2]; sample x3): 2.49
- Stat1 1450033_a_at (Group G1, Modules 20) ([2]; sample x3): 1.05
- Stat1 1450034_at (Group G1, Modules 20) ([2]; sample x3): 1.52
- Tdrd7 1426716_at (Group G1, Modules 20) ([2]; sample x3): 0.94
- Tor1aip2 1418115_s_at (Group G1, Modules 20) ([2]; sample x3): 0.54
- Tor1aip2 1418116_at (Group G1, Modules 20) ([2]; sample x3): 0.89
- Tor1aip2 1435526_at (Group G1, Modules 20) ([2]; sample x3): 1.22
- Trim12a 1437432_a_at (Group G1, Modules 20) ([2]; sample x3): 1.68
- Uba7 1426970_a_at (Group G1, Modules 20) ([2]; sample x3): 2.27
